Measured values reported in BigSolDB 2.1.

NC(=O)c1ccccc1
solubility (mole fraction)
Settings	283.15 K	288.15 K	293.15 K	298.15 K	303.15 K	308.15 K	313.15 K	318.15 K	323.15 K
in acetone	0.0508	0.0589	0.0703	0.0817	0.0948	0.107	0.126	0.149	0.174
in acetonitrile	0.0162	0.0196	0.0231	0.0278	0.0331	0.0385	0.046	0.0564	0.0712
in ethanol	0.0412	0.0479	0.0555	0.0648	0.0758	0.087	0.101	0.12	0.143
in ethyl acetate	0.0206	0.0234	0.0279	0.0334	0.0392	0.0455	0.0518	0.0613	0.0719
in isobutanol	0.0268	0.0289	0.0342	0.0416	0.0489	0.0569	0.0665	0.0786	0.0945
in isopropanol	0.0253	0.0314	0.0387	0.0473	0.0558	0.0642	0.0767	0.0893	0.111
in methanol	0.0599	0.0699	0.0804	0.0917	0.105	0.121	0.141	0.164	0.189
in methyl acetate	0.0236	0.0277	0.0334	0.0401	0.0476	0.0567	0.0662	0.0769	0.0927
in n-butanol	0.0308	0.036	0.0425	0.0509	0.0591	0.0682	0.0787	0.0933	0.109
in n-butyl acetate	0.0176	0.0192	0.0224	0.0264	0.0304	0.0349	0.0402	0.0451	0.0525
in n-propanol	0.0329	0.0398	0.0479	0.0561	0.0653	0.0753	0.0891	0.103	0.126
in water	0.00099	0.00128	0.0017	0.00212	0.00261	0.00306	0.00363	0.00438	0.00538
